These results are taken from publication PMC11986975, “A Cdk5 inhibitor restores cognitive function and alleviates type 2 diabetes in mice” (iScience, 2025).

As a reminder, the IC50 is the point on the concentration scale where inhibition reaches its midpoint. The low end stands for inhibition by little substance, the high end for a need for much substance.

In assay [1] the target is Cdk5/p25 (Homo sapiens, UniProt Q00535). Description: Cdk5 kinase assay (ADP-Glo) with Cdk5/p25 complex. The conditions noted are these: 10 μM ATP, histone substrate, inhibitor 0-100 nM. It counts as biochemical. How it is done:
(§1) The test tube Cdk5 Kinase assay was performed utilizing Cdk5/p35 and Cdk5/p25 complexes as kinases, following the modified procedure outlined in a previous study,[52] using a Promega ADP-GloTM Kinase Assay kit. The reaction was carried out with 10 μM ATP and 2 μg of histone as the substrate for Cdk5 complexes. To study the inhibition patterns, 19 Cdk5 inhibitors (BLINK1-19) identified through molecular docking were added to the Cdk5 kinase reaction in increasing concentrations ranging from 0 to 100 nM. The IC50 (half-maximal inhibitory concentration) values of all the inhibitors were calculated based on Log(inhibitor) vs. normalized response using GraphPad software.

Assay [2] concerns the target Cdk5/p35 (Homo sapiens, UniProt Q00535). Description: Cdk5 kinase assay (ADP-Glo) with Cdk5/p35 complex. It counts as biochemical. Conditions: 10 μM ATP, histone substrate, inhibitor 0-100 nM. How it is done:
as §1
(In general: In ADP-Glo the light output rises with the ADP produced.)

Sequence of Cdk5/p25 (Q00535 whole entry, species assumed): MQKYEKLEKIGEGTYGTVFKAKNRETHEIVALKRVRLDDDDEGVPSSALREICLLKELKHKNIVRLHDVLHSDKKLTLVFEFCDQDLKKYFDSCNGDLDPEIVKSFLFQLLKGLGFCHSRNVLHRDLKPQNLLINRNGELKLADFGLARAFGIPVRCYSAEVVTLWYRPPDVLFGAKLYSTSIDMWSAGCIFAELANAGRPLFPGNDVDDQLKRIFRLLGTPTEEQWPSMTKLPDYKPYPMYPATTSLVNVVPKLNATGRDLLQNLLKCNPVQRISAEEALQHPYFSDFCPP
Sequence of Cdk5/p25 (Q15078 99-307 partner limits assumed, species assumed): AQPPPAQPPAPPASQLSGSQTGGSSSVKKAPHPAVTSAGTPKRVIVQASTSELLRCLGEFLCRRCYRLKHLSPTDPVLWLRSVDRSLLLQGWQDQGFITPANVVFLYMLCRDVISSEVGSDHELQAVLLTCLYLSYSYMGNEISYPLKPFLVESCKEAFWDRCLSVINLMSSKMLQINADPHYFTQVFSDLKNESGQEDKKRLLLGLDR
Sequence of Cdk5/p35 (Q00535 whole entry, species assumed): as the sequence (Q00535 whole entry, species assumed) above
Sequence of Cdk5/p35 (Q15078 whole entry partner, species assumed): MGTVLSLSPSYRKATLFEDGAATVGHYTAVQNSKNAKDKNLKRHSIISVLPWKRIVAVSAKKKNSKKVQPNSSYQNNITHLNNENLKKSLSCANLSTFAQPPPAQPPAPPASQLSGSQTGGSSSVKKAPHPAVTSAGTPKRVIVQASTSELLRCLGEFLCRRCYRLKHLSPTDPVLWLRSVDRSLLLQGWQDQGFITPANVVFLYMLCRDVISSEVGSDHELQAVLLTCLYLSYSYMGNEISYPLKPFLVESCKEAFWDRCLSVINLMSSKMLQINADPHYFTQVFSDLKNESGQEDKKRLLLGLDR

For `CC1(C)Cc2c(sc3nc(SCC(=O)O)[nH]c(=O)c23)CO1` [BLINK1], the IC50 in assay [1] came out at 18.4 nM; in assay [2] it was 19.2 nM.
As to `COc1ccc(C(=O)CSc2nc3sc(C)c(C)c3c(=O)[nH]2)cc1C` [BLINK2], the figures for the IC50 in assay [1] and in assay [2] were 33.5 nM and 92.6 nM, respectively.
Take `Cc1ccc(-c2csc(Cc3nc(-c4cc5ccccc5oc4=O)cs3)n2)cc1` [BLINK3]: the values for the IC50 in assay [1] and in assay [2] were 71.3 nM and 68.7 nM, respectively.
As for `O=C(Nc1ccc(Cl)cc1C(=O)NCCO)c1ccc(Cl)cc1Cl` [BLINK4], the IC50 in assay [1] was determined as 16.9 nM; in assay [2], 27.7 nM.
On to `CN(C)C(=O)CSc1nc2sc3c(c2c(=O)[nH]1)CCCC3` [BLINK5], for which the IC50 in assay [1] was found to be 17.5 nM; in assay [2], 16.9 nM.
For `OCCCNc1nc(-c2ccccc2Cl)c2cc(Br)ccc2n1` [BLINK6], the IC50 worked out at 141 nM in assay [1] and 183 nM in assay [2].
For `Cc1nnc(SCC(=O)Nc2nsc(-c3ccc(Cl)cc3)n2)s1` [BLINK7], the IC50 amounted to 97 nM in assay [1] and 85.2 nM in assay [2].
`Cc1ccc2nc(Nc3nc(O)cc(CSc4nnc(C)s4)n3)nc(C)c2c1` [BLINK8]: the IC50 worked out at 108 nM in assay [1] and 50.6 nM in assay [2].
In the case of `CCOC(=O)c1cnc(Nc2nc3ccccc3o2)nc1CSc1nnc(C)s1` [BLINK9], the results for the IC50 in assay [1] and in assay [2] were 35.1 nM and 54.1 nM, respectively.
Taken in the same sequence, the figures for `O=C(CSc1nnc(-c2ccccc2Cl)[nH]1)c1ccc(O)c(O)c1` [BLINK13] were 41.5 nM and 20.1 nM.
`Cc1cc(C)c2nc(-c3cccnc3)cc(C(=O)Nc3sc(Cc4ccccc4)cc3C(N)=O)c2c1` [BLINK14]: the IC50 in assay [1] turned out to be 23.1 nM; in assay [2] it was 24.8 nM.
On to `Clc1ccc2nc(SCc3csc(Nc4ccccc4)n3)oc2c1` [BLINK16], for which the results for the IC50 in assay [1] and in assay [2] were 21.2 nM and 28 nM, respectively.
With `O=C(CSc1n[nH]c(-c2ccc(Cl)cc2)n1)N[C@H]1C[C@@H]2CC[C@H]1C2` [BLINK17], the IC50 is 43.2 nM in assay [1] and 63.2 nM in assay [2].
Regarding `O=C1c2cccc3cccc(c23)C(=O)N1CCCSc1n[nH]c(-c2ccc(F)cc2)n1` [BLINK18], the IC50 is 32.1 nM in assay [1] and 57.2 nM in assay [2].
For the compound `CC1CCc2c(sc3nc(CCl)ncc23)C1` (stereo not drawn) [BLINK19], the IC50 came out at 48.1 nM in assay [1] and 55.3 nM in assay [2].
